According to patent US20230416248A1, “COMPOUNDS AND USES THEREOF” (Foghorn Therapeutics Inc., priority 2020, published 2023):
Where two headings read alike, the source gives them in different places.

What was measured:
BRM = target: T1, BRM (Homo sapiens, UniProt P51531); assay: ATPase catalytic activity of BRM, ADP-Glo in vitro biochemical assay; conditions: for IC50: 30 nM BRM, 400 μM ATP; for Ratio* (BRG1 IC50 (μM) divided by BRM IC50 (μM)): selectivity ratio BRG1 IC50 / BRM IC50
T1 construct: made in house; host or cells: High Five insect cells
Protocol: (§1) The ATPase catalytic activity of BRM or BRG-1 was measured by an in vitro biochemical assay using ADP-Glo™ (Promega, V9102). The ADP-Glo™ kinase assay is performed in two steps once the reaction is complete. The first step is to deplete any unconsumed ATP in the reaction. The second step is to convert the reaction product ADP to ATP, which will be utilized by the luciferase to generate luminesce and be detected by a luminescence reader, such as Envision.
The assay reaction mixture ([…]) contains 30 nM of BRM or BRG-1, 20 nM salmon sperm DNA (from Invitrogen, UfraPure™ Salmon Sperm DNA Solution, cat #15632011), and 400 μM of ATP in the ATPase assay buffer, which comprises of 20 mM Tris, pH 8, 20 mM MgCl2, 50 mM NaCl, 0.1% Tween-20, and 1 mM fresh DTT (Piercer™ DTT (Dithiothreitol), cat #20290). The reaction is initiated by the addition of the 2.5 μL ATPase solution to 2.5 μL ATP/DNA solution on low volume white Proxiplate-384 plus plate (PerkinElmer, cat #6008280) and incubates at room temperature for 1 hour. Then, following addition of 5 μL of ADP-Glo™ Reagent provided in the kit, the reaction incubates at room temperature for 40 minutes. Then, 10 μL of Kinase Detection Reagent provided in the kit is added to convert ADP to ATP, and the reaction incubates at room temperature for 60 minutes. Finally, luminescence measurement is collected with a plate-reading luminometer, such as Envision.

BRG-1 = target: T2, BRG-1 (Homo sapiens, UniProt P51532); assay: ATPase catalytic activity of BRG-1, ADP-Glo in vitro biochemical assay; conditions: 30 nM BRG-1, 400 μM ATP, read-out: BRG1 IC50
T2 construct: made in house; host or cells: High Five insect cells
Protocol: as §1
Then, following addition of 5 μL of ADP-Glo™ Reagent provided in the kit, the reaction incubates at room temperature for 40 minutes. Then, 10 μL of Kinase Detection Reagent provided in the kit is added to convert ADP to ATP, and the reaction incubates at room temperature for 60 minutes. Finally, luminescence measurement is collected with a plate-reading luminometer, such as Envision.

[1] = ATPase catalytic activity, ADP-Glo

T1 sequence (P51531 whole entry): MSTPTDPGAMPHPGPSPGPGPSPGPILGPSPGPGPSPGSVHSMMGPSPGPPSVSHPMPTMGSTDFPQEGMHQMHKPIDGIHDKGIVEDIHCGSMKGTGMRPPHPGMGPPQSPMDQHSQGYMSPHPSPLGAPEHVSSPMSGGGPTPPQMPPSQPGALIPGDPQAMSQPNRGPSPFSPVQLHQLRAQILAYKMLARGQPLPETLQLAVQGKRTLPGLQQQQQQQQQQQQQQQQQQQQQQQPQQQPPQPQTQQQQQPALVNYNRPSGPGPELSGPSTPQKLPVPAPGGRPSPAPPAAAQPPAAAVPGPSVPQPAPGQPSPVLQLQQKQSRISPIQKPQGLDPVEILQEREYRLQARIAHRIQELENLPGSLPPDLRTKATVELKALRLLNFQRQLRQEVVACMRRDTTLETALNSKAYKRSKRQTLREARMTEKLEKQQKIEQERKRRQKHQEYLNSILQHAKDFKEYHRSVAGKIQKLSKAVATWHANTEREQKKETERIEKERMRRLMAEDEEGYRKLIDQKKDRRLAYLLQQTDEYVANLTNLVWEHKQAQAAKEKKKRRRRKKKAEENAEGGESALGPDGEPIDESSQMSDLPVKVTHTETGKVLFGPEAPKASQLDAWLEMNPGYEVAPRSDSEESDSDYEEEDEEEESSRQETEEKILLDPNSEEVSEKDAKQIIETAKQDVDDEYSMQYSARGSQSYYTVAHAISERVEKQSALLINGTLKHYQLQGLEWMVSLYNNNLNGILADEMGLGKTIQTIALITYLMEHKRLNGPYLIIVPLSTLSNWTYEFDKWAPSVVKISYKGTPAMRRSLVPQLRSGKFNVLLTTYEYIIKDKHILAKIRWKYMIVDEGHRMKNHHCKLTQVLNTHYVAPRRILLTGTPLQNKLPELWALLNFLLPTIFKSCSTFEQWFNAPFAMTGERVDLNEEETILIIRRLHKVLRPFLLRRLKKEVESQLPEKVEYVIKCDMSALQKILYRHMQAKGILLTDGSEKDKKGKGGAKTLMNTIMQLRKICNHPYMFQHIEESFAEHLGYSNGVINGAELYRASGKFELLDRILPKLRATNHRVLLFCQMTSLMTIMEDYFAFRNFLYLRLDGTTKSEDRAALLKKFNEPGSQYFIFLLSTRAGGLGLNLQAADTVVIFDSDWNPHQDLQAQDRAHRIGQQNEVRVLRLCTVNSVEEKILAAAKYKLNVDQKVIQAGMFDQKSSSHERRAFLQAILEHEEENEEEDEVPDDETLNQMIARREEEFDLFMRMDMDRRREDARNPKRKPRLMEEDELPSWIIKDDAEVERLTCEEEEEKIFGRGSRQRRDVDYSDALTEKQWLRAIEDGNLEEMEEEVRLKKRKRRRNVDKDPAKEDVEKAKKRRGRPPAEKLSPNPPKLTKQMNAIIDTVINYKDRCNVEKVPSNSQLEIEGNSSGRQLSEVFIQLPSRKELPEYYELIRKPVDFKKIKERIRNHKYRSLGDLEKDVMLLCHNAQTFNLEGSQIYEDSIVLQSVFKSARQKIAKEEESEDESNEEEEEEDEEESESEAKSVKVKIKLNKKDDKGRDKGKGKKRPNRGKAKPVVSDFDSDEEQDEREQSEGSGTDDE
T2 sequence (P51532 whole entry): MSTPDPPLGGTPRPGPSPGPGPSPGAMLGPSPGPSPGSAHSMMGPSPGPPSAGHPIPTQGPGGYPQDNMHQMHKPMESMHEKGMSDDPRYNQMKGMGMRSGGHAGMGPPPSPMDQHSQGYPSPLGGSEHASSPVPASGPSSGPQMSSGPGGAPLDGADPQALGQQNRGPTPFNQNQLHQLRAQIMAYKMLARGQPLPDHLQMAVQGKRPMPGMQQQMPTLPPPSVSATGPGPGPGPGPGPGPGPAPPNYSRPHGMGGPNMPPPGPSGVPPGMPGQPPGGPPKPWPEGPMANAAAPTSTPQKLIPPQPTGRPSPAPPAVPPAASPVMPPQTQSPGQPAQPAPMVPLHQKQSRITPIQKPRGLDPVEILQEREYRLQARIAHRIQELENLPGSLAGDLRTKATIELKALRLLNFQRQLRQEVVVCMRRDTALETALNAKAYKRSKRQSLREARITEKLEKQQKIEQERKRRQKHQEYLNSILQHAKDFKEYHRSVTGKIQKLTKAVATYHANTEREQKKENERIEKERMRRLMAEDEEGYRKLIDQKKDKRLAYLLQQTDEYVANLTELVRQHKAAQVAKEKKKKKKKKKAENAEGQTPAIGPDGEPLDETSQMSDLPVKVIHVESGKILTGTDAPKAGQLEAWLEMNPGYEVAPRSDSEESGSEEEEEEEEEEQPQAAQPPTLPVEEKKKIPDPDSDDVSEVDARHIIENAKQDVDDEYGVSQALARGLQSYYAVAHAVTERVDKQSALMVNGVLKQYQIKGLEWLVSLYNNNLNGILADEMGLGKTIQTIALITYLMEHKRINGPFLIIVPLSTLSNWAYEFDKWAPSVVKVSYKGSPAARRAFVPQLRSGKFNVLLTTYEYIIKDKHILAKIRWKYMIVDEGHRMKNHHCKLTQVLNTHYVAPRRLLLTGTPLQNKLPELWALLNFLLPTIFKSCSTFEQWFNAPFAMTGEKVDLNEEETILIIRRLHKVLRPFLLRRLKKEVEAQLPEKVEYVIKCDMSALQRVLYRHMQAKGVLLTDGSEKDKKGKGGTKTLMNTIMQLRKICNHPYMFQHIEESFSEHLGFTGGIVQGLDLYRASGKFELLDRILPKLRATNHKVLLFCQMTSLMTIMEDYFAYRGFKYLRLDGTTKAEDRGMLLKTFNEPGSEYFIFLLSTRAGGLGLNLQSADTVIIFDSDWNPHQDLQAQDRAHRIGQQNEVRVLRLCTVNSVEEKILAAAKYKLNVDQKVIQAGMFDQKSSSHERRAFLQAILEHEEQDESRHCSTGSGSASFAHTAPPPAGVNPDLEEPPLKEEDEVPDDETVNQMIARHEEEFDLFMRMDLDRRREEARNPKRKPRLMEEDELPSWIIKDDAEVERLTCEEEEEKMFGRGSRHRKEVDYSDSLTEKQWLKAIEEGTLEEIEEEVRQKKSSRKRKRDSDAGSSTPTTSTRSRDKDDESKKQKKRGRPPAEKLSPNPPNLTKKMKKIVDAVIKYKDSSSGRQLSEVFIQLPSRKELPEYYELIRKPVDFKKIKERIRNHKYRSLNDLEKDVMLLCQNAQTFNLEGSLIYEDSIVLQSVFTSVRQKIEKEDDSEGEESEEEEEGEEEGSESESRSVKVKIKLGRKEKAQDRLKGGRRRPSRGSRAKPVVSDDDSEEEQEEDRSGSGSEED

Row | SMILES | IC50 (BRM; [1]) [nM] | Ratio* (BRM; ratio of BRG1 IC50 to BRM IC50) | IC50 (BRG-1; [1]) [nM] | IC50 (BRM; ADP-Glo ATPase assay) [nM] | Ratio* (BRG1 IC50 (μM) divided by BRM IC50 (μM)) (BRM) | IC50 (BRG-1; ADP-Glo ATPase assay) [nM] | Ratio* (BRM; ratio BRG1 IC50 / BRM IC50)
1 | C[C@@H]1CN(c2cccc(-c3ccc4cnc(CNC(=O)c5cnc6c(c5)S(=O)(=O)CCC5CC65)cc4n3)n2)C[C@H](C)O1 (mixture of isomers) [Compound 528] | 7.9 | 4.24 | 33.6 |  |  |  | 
2 | CC1COCc2ccc(C(=O)NCc3cc4nc(-c5cccc(N6CCC6)n5)ccc4cn3)cc2S1(=O)=O (single isomer, unassigned) [Compound 199] |  |  |  | 252 | 9.56 | 2410 | 
3 | C[C@@H]1CN(c2cccc(-c3ccc4cnc(CNC(=O)c5cc(F)c6c(c5)S(=O)(=O)CCCO6)cc4n3)n2)C[C@H](C)O1 [Compound 37] |  |  |  | 8.6 | 9.89 | 85 | 
4 | C[C@@H]1CN(c2cccc(-c3cnc4cnc(CNC(=O)c5ccc(Cl)c(S(C)(=O)=O)c5)cc4n3)n2)C[C@H](C)O1 [Compound 41] |  |  |  | 18.1 | 10.70 | 194 | 
5 | C[C@@H]1C=C(c2cccc(-c3ccc4cnc(CNC(=O)c5ccc6c(c5)S(=O)(=O)CCOC6)cc4n3)n2)C[C@H](C)O1 [Compound 45] |  |  |  | 5.1 | 3.87 | 19.8 | 
6 | C[C@@H]1CC(c2cccc(-c3ccc4cnc(CNC(=O)c5ccc6c(c5)S(=O)(=O)CCOC6)cc4n3)n2)=C[C@H](C)O1 [Compound 46] |  |  |  | 9.3 | 4.92 | 45.9 | 
7 | CC1CS(=O)(=O)c2cc(C(=O)NCc3cc4nc(-c5cccc(N6C[C@@H](C)O[C@@H](C)C6)n5)ccc4cn3)ccc2CO1 (some centres unmarked) [Compound 48] |  |  |  | 294 | 6.26 | 1840 | 
8 | CCOc1cccc(-c2ccc3cnc(CNC(=O)c4cc(F)c5c(c4)S(=O)(=O)CCOC5)cc3n2)n1 [Compound 49] |  |  |  | 24.8 | 18.33 | 455 | 
9 | O=C(NCc1cc2nc(N3CCc4ccccc43)ccc2cn1)c1ccc2c(c1)S(=O)(=O)CCOC2 [Compound 50] |  |  |  | 147 |  | 1520 | 
10 | O=C(NCc1cc2nc(N3CCCc4ccncc43)ccc2cn1)c1ccc2c(c1)S(=O)(=O)CCOC2 [Compound 52] |  |  |  | 76 | 9.43 | 716 | 
11 | CN1CCOc2c(-c3ccc4cnc(CNC(=O)c5ccc6c(c5)S(=O)(=O)CCOC6)cc4n3)ccnc21 [Compound 58] |  |  |  | 96.9 | 5.63 | 546 | 
12 | CCc1cc(C(=O)NCc2cc3nc(-c4cccc(N5C[C@@H](C)O[C@@H](C)C5)n4)ccc3cn2)cc2c1COCCS2(=O)=O [Compound 59] |  |  |  | 73 | 10.68 | 780 | 
13 | COC[C@@H](C)Nc1cccc(-c2ccc3cnc(CNC(=O)c4ccc(C(F)F)c(S(C)(=O)=O)c4)cc3n2)n1 [Compound 60] |  |  |  | 789 | 6.34 | 5000 | 
14 | O=C(NCc1cc2nc(-c3cccc(C4CC4)n3)ccc2cn1)c1cc(F)c2c(c1)S(=O)(=O)CCOC2 [Compound 63] |  |  |  | 21.4 | 29.53 | 633 | 
15 | CO[C@@H](C)CN(C)c1cccc(-c2ccc3cnc(CNC(=O)c4ccc5c(c4)S(=O)(=O)CCOC5)cc3n2)n1 [Compound 64] |  |  |  | 17.5 | 19.39 | 340 | 
16 | CCO[C@@H]1CCOc2c(-c3ccc4cnc(CNC(=O)c5ccc6c(c5)S(=O)(=O)CCOC6)cc4n3)cccc21 [Compound 65] |  |  |  | 16.2 | 6.14 | 99.7 | 
17 | COCCN(c1ccnc(C2CC2)n1)c1ccc2cnc(CNC(=O)c3ccc4c(c3)S(=O)(=O)CCOC4)cc2n1 [Compound 839] |  |  |  |  |  |  | 1.00
18 | COCCN(c1cccc(C2CC2)n1)c1ccc2cnc(CNC(=O)c3ccc4c(c3)S(=O)(=O)CCOC4)cc2n1 [Compound 840] |  |  |  | 4000 |  |  | 1.25
19 | O=C(NCc1cc2nc(-c3ccc(OC(F)F)cn3)ccc2cn1)c1ccc2c(c1)S(=O)(=O)CCOC2 [Compound 849] |  |  |  | 606 |  |  | 8.25

More lines, now with the values ahead:

Row | IC50 (BRM; [1]) [nM] | Ratio* (BRM; ratio of BRG1 IC50 to BRM IC50) | IC50 (BRG-1; [1]) [nM] | IC50 (BRM; ADP-Glo ATPase assay) [nM] | Ratio* (BRG1 IC50 (μM) divided by BRM IC50 (μM)) (BRM) | IC50 (BRG-1; ADP-Glo ATPase assay) [nM] | Ratio* (BRM; ratio BRG1 IC50 / BRM IC50) | SMILES
20 |  |  |  | 19.3 | 12.64 | 244 |  | CC1COCc2ccc(C(=O)NCc3cc4nc(-c5cccc(N6CCC6)n5)ccc4cn3)cc2S1(=O)=O (single isomer, unassigned) [Compound 197]
21 |  |  |  | 7.5 | 6.80 | 51.1 |  | C[C@@H]1CN(c2cccc(-c3ccc4cnc(CNC(=O)c5ccc6c(c5)S(=O)(=O)[C@@H](C)CCO6)cc4n3)n2)C[C@H](C)O1 [Compound 15]
22 |  |  |  | 8.9 |  | 88.4 |  | C[C@@H]1CN(c2cccc(-c3ccc4nnc(CNC(=O)c5ccc(C(F)F)c(S(C)(=O)=O)c5)cc4n3)n2)C[C@H](C)O1 [Compound 40]
23 |  |  |  | 17.3 | 7.37 | 127 |  | CO[C@H]1C[C@H](N(C)c2cccc(-c3ccc4cnc(CNC(=O)c5ccc6c(c5)S(=O)(=O)CCOC6)cc4n3)n2)C1 [Compound 42]
24 |  |  |  | 19.8 | 9.33 | 185 |  | Cn1ccc2c(-c3ccc4cnc(CNC(=O)c5ccc6c(c5)S(=O)(=O)CCOC6)cc4n3)ccc(Cl)c21 [Compound 43]
25 |  |  |  | 90.5 | 7.67 | 694 |  | COC(C)(C)CN(C)c1cccc(-c2ccc3cnc(CNC(=O)c4ccc5c(c4)S(=O)(=O)CCOC5)cc3n2)n1 [Compound 44]
26 |  |  |  | 74.5 | 6.12 | 457 |  | O=C(NCc1cc2nc(N3CCc4cccnc43)ccc2cn1)c1ccc2c(c1)S(=O)(=O)CCOC2 [Compound 47]
27 |  |  |  | 34.9 | 5.74 | 200 |  | C[C@@H]1CN(c2cccc(-c3ccc4cnc(CNC(=O)c5ccc6c(c5)S(=O)(=O)CCN(C)C6)cc4n3)n2)C[C@H](C)O1 [Compound 51]
28 |  |  |  | 11.7 |  | 116 |  | C[C@@H]1CN(c2cccc(-c3ccc4cnc(CNC(=O)c5ccc6c(c5)S(=O)(=O)CCCO6)cc4n3)n2)C[C@H](C)O1 [Compound 53]
29 |  |  |  | 9.5 | 4.70 | 44.7 |  | CC1OCCS(=O)(=O)c2cc(C(=O)NCc3cc4nc(-c5cccc(N6C[C@@H](C)O[C@@H](C)C6)n5)ccc4cn3)ccc21 (some centres unmarked) [Compound 54]
30 |  |  |  | 25.3 | 9.45 | 239 |  | CO[C@H](C)CN(C)c1cccc(-c2ccc3cnc(CNC(=O)c4ccc5c(c4)S(=O)(=O)CCOC5)cc3n2)n1 [Compound 55]
31 |  |  |  | 13.6 | 17.62 | 240 |  | C[C@@H]1CN(c2cccc(-c3cnc4cnc(CNC(=O)c5ccc(C(F)F)c(S(C)(=O)=O)c5)cc4n3)n2)C[C@H](C)O1 [Compound 56]
32 |  |  |  | 8 |  | 118 |  | O=C(NCc1cc2nc(-c3cccc(N4CCC4)n3)ccc2nn1)c1ccc2c(c1)S(=O)(=O)CCOC2 [Compound 57]
33 |  |  |  | 956 | 5.23 | 5000 |  | COC[C@H](C)Nc1cccc(-c2ccc3cnc(CNC(=O)c4ccc(C(F)F)c(S(C)(=O)=O)c4)cc3n2)n1 [Compound 61]
34 |  |  |  | 18.9 | 13.08 | 247 |  | CCN(CC)c1cccc(-c2ccc3cnc(CNC(=O)c4cc(F)c5c(c4)S(=O)(=O)CCOC5)cc3n2)n1 [Compound 62]
35 |  |  |  | 211 | 7.78 | 1640 |  | CCO[C@H]1CCOc2c(-c3ccc4cnc(CNC(=O)c5ccc6c(c5)S(=O)(=O)CCOC6)cc4n3)cccc21 [Compound 66]
36 |  |  |  |  |  |  | 1.00 | O=C(NCc1cc2cc(N3CCOc4cc(C5CC5)cnc43)ncc2cn1)c1ccc2c(c1)S(=O)(=O)CCOC2 [Compound 811]
37 |  |  |  | 3200 |  |  | 1.56 | Cn1cccc(-c2ccc3cnc(CNC(=O)c4ccc5c(c4)S(=O)(=O)CCOC5)cc3n2)c1=O [Compound 826]
38 |  |  |  | 1660 |  |  | 3.02 | COCCN(c1cc(C2CC2)ccn1)c1ccc2cnc(CNC(=O)c3ccc4c(c3)S(=O)(=O)CCOC4)cc2n1 [Compound 829]
39 |  |  |  | 2320 |  |  | 2.15 | COCCN(c1ccc(C2CC2)cn1)c1ccc2cnc(CNC(=O)c3ccc4c(c3)S(=O)(=O)CCOC4)cc2n1 [Compound 833]
